Patent publication US20130183239A1, “ISOTOPIC CARBON CHOLINE ANALOGS” (IMPERIAL COLLEGE, priority 2010, published 2013)

Tests used:
[1] = tested on: HCT116 tumors; settings: mouse, in vivo
Protocol: Radiolabeled metabolites from plasma and tissues were quantified using a method adapted from Smith G, Zhao Y, Leyton J, et al. Radiosynthesis and pre-clinical evaluation of [(18)F]fluoro-[1,2-(2)H(4)]choline. Nucl Med Biol. 2011; 38:39-51. Briefly, tumor-bearing mice under terminal anaesthesia were administered a bolus i.v. injection of one of the following radiotracers: ^11C-choline, ^11C-D4-choline (˜18.5 MBq) or ^18F-D4-choline (˜3.7 MBq), and sacrificed by exsanguination via cardiac puncture at 2, 15, 30 or 60 min post radiotracer injection. For automated radiosynthesis methodology, see Example 22. Tumor, kidney and liver samples were immediately snap-frozen in liquid nitrogen. Aliquots of heparinized blood were rapidly centrifuged (14000 g, 5 min, 4° C.) to obtain plasma. Plasma samples were subsequently snap-frozen in liquid nitrogen and kept on dry ice prior to analysis.
For analysis, samples were thawed and kept at 4° C. immediately before use. To ice cold plasma (200 μl) was added ice cold methanol (1.5 mL) and the resulting suspension centrifuged (14000 g; 4° C.; 3 min). The supernatant was then decanted and evaporated to dryness on a rotary evaporator (bath temperature, 40° C.), then resuspended in HPLC mobile phase (Solvent A: acetonitrile/water/ethanol/acetic acid/1.0 M ammonium acetate/0.1 M sodium phosphate [800/127/68/2/3/10]; 1.1 mL). Samples were filtered through a hydrophilic syringe filter (0.2 μm filter; Millex PTFE filter, Millipore, Mass., USA) and the sample (˜1 mL) then injected via a 1 mL sample loop onto the HPLC for analysis. Tissues were homogenized in ice-cold methanol (1.5 mL) using an Ultra-Turrax T-25 homogenizer (IKA Werke GmbH and Co. KG, Staufen, Germany) and subsequently treated as per plasma samples.
Samples were analyzed on an Agilent 1100 series HPLC system (Agilent Technologies, Santa Clara, Calif., USA), configured as described above, using the method of Leyton J, Smith G, Zhao Y, et al. [18F]fluoromethyl-[1, 2-2H4]-choline: a novel radiotracer for imaging choline metabolism in tumors by positron emission tomography. Cancer Res. 2009; 69:7721-7728. A μBondapak C18 HPLC column (Waters, Milford, Mass., USA; […]), stationary phase and a mobile phase comprising of Solvent A (vide supra) and Solvent B (acetonitrile/water/ethanol/acetic acid/1.0 M ammonium acetate/0.1 M sodium phosphate (400/400/68/44/88/10)), delivered at a flow rate of 3 mL/min were used for analyte separation. The gradient was set as follows: 0% B for 5 min; 0% to 100% B in 10 min; 100% B for 0.5 min; 100% to 0% B in 2 min; 0% B for 2.5 min.
^11C-choline, ^11C-D4-choline and ^18F-D4-choline metabolism were measured in HCT116 tumors (FIG. 22).

[2] = tested on: HCT116 tumors; parameters: AUC: unit not given beside the values
Protocol: (§1) Dynamic ^11C-choline, ^11C-D4-choline and ^18F-D4-choline imaging scans were carried out on a dedicated small animal PET scanner (Siemens Inveon PET module, Siemens Medical Solutions USA, Inc., Malvem, Pa., USA) following a bolus i.v. injection in tumor-bearing mice of either ˜3.7 MBq for ^18F studies, or ˜18.5 MBq for ^11C. Dynamic scans were acquired in list mode format over 60 min. The acquired data were then sorted into 0.5 mm sinogram bins and 19 time frames for image reconstruction (4×15 s, 4×60 s, and 11×300 s), which was done by filtered back projection. For input function analysis, data were sorted into 25 time frames for image reconstruction (8×5 s, 1×20 s, 4×40 s, 1×80 s, and 11×300 s). The Siemens Inveon Research Workplace software was used for visualization of radiotracer uptake in the tumor; 30 to 60 min cumulative images of the dynamic data were employed to define 3-dimensional (3D) regions of interest (ROIs). Arterial input function was estimated as follows: a single voxel 3D ROI was manually drawn in the center of the heart cavity using 2 to 5 min cumulative images. Care was taken to minimize ROI overlap with the myocardium. The count densities were averaged for all ROIs at each time point to obtain a time versus radioactivity curve (TAC). Tumor TACs were normalized to injected dose, measured by a VDC-304 dose calibrator (Veenstra Instruments, Joure, The Netherlands), and expressed as percentage injected dose per mL tissue. The area under the TAC, calculated as the integral of % ID/mL from 0-60 min, and the normalized uptake of radiotracer at 60 min (% ID/mL60) were also used for comparisons.
(§2) A 2-tissue irreversible compartmental model was employed to fit the TACs, as has been previously established for ^11C-choline (Kenny L M, Contractor K B, Hinz R, et al. Reproducibility of [11C]choline-positron emission tomography and effect of trastuzumab. Clin Cancer Res. Aug. 15 2010; 16(16):4236-4245; and Sutinen E, Nurmi M, Roivainen A, et al. Kinetics of [(11)C]choline uptake in prostate cancer: a PET study. Eur J Nucl Med Mol. Imaging. March 2004; 31(3):317-324). An estimate of the whole blood TAC (wbTAC(t)) was derived from the PET image itself, as described above. […] Therefore it was fitted with a sum of 3 exponentials from the peak on and the fitted function was used as input function in the kinetic modeling (after metabolite correction, see below). […] The pf values were fitted to a sum of two exponentials with the constraint pf(t=0)=1 to obtain the function pf(t). The parent whole blood TAC wbTACPAR(t) was then computed by multiplying wbTAC(t) and pf(t) and used as input function to estimate the parameters K1 (mL/cm^3/min), k2 (1/min), k3 (1/min) and Vb (unitless). The steady state net irreversible uptake rate constant Ki (mL/cm^3/min) was calculated from the estimated microparameters as K1k3/(k2+k3).

[3] = tested on: malignant melanoma A375 tumors; parameters: AUC: unit not given beside the values
Protocol: as §1, §2

[4] = mouse, in vivo, iv
[5] = HCT116 tumors, two-tissue irreversible model, n=3
[6] = HCT116 tumors, 2-tissue irreversible model
[7] = A375 tumors, 2-tissue irreversible model

[2H]C([2H])(O)C([2H])([2H])[N+](C)(C)C[18F] [[^18F]D4-FCH, [^18F]fluoromethyl-[1,2-^2H4]-choline]
tumor betaine radioactivity [1]: 14.0±3.0%
tumor radioactivity corresponding to phosphocholine [1]: 45.1±3.2%
higher un-metabolized parent tracer in tumor compared to 11C-D4-choline ([1]; 1 h): 4.0 fold
higher un-metabolized parent tracer in tumor compared to 11C-choline ([1]; 1 h): 2.7 fold
tumor tracer kinetics between 30 and 60 min ([2]; HCT116 tumors, dynamic PET): Slow wash-out of activity
decrease in Ki compared to 11C-D4-choline [2, 5]: 49.2%
decrease in k3 compared to 11C-D4-choline [2, 5]: 75.2%
K1′ [2, 6]: 0.142 ± 0.027
Ki [2, 6]: 0.008 ± 0.001 mL/cm^3/min
k3 [2, 6]: 0.039 ± 0.003 min⁻¹
AUC ([2]; mouse, in vivo): 114.5 ± 7.0
NUV60 ([2]; mouse, in vivo): 1.81 ± 0.11 % ID/mL
tumor radiotracer uptake by PET ([2]; mouse, in vivo): no higher
K1′ [3, 7]: 0.111 ± 0.021
Ki [3, 7]: 0.006 ± 0.002 mL/cm^3/min
k3 [3, 7]: 0.030 ± 0.008 min⁻¹
AUC ([3]; mouse, in vivo): 107.3 ± 7.7
NUV60 ([3]; mouse, in vivo): 1.71 ± 0.14 % ID/mL
conversion to betaine metabolite in plasma [4]: ~40%
